Reference: patent EP0117811A2, “Fungicidal pharmaceutical compositions for oral administration” (SANOFI S.A., priority 1983, dated 1984)
Like-named read-outs stand apart in the source and are kept apart here.

Test: Bioavailability in the baboon: plasma levels of omoconazole after oral administration (microbiological agar diffusion assay, test germ Candida macedoniensis)
Type: in vivo, babouin
Conditions: fasted baboons
Procedure: La biodisponibilité des compositions pharmaceutiques selon l'invention a été étudiée chez le babouin en comparaison avec le produit (I) seul.
Les études ont été conduites à la dose de 100 mg/kg d'omoconazole et les produits ont été administrés aux singes à jeun par sonde gastrique. […] Les dosages des taux plasmatiques d'omoconazole ont été effectués par une méthode microbiologique réalisée à l'aide d'une technique de diffusion en milieu gélosé avec comme germe test Candida macedoniensis.
Des essais ont été effectués selon la même méthode, avec les formulations des exemples 4, 5, 6, 9 et 14. Pour les 3 premiers cas, les formulations ont été administrées telles quelles (solution) tandis que les compositions des exemples 9 et 14 et l'omoconazole ont été administrés dans des gélules No. 2. […]

AUC (baboon, 100 mg/kg omoconazole oral, mean of 4 animals, Ex 4, 5, 6 given as such, Ex 9, 14 and omoconazole in No. 2 capsules, read-out: Aire sous la courbe): 11600 ng·h/mL
Cmax (baboon, 100 mg/kg omoconazole oral, mean of 4 animals, Ex 4, 5, 6 given as such, Ex 9, 14 and omoconazole in No. 2 capsules, read-out: Concentration maximale): 1350 ng/mL
Tmax (baboon, 100 mg/kg omoconazole oral, mean of 4 animals, Ex 4, 5, 6 given as such, Ex 9, 14 and omoconazole in No. 2 capsules, read-out: Temps de C. Max.): 5.5 h
AUC at 24 h (baboon, po, 100 mg/kg omoconazole by gastric tube, mean of 3 animals, sampling up to 24 h, read-out: aire sous la courbe): 11500 ng·h/mL
Cmax (100 mg/kg omoconazole by gastric tube, mean of 3 animals): 1,35 µg/ml
Compound: C/C(=C(/OCCOc1ccc(Cl)cc1)c1ccc(Cl)cc1Cl)n1ccnc1 [Omoconazole]
